{"source": "paper PMC5601486", "about": "“Identification of 4-phenylquinolin-2(1H)-one as a specific allosteric inhibitor of Akt” (Scientific Reports, 2017)", "key": {"[1]": {"test_system": "Neuro 2A cells", "assay": "MTS cell proliferation assay", "assay_type": "cell-based, Mouse", "details": "1 day", "description": "Neuro 2A cells or NIH/3T3 cells (ATCC) were seeded at various confluency in a 96-well plate in 100 µL DMEM containing 5% FBS or 10% FBS with 1% penicillin streptomucin, respectively, at 37 °C in a 5% CO2 and 95% humidity incubator for 18 hr. To each well 1 µL inhibitor with various concentrations or DMSO was added. The final concentrations of the tested inhibitors were 0, 5, 10, 20, 40 and 80 µM for G7 and LY, and 0, 5, 10, 20, 40 and 80 nM for Torin1, based on their respective IC50 values (~µM for G7 and LY and ~ nM for Torin 1). After 24 hr, 20 µL of CellTiter 96® AQueous One Solution Reagent (Promega) were added. The plate was placed in the incubator for 2 h and absorbance at 490 nm was measured with a Synergy HT Microplate Reader (Bio-Tek)."}, "[2]": {"test_system": "MAP4K2", "assay": "KINOMEscan", "details": "50000 nM", "quoted_text": "KINOMEscan™ selectivity screen\n(§1) The assay was perfor med at DiscoveRx Corporation according the methods published previously5. Briefly, Kinase-tagged T7 phage strains were grown in parallel in an E. coli host derived from the BL21 strain. E. coli were grown to log-phase and infected with T7 phage from a frozen stock and incubated with shaking at 32°C until lysis (90-150 minutes). The kinases were produced in HEK-293 cells and subsequently tagged with DNA for qPCR detection. Streptavidin-coated magnetic beads were treated with biotinylated small molecule ligands to generate affinity resins for kinase\n(§2) inhibitor or DMSO control was performed in polypropylene 384-well plates for 1 hr at room temperature. After wash with PBS buffer containing 0.05% Tween 20, the beads were incubated in elution buffer (PBS containing 0.05 % Tween 20 and 0.5 μM non-biotinylated affinity ligand) for 30 minutes at room temperature. The kinase concentration in the eluates was measured by qPCR."}, "[3]": {"test_system": "ACVR2A", "assay": "KINOMEscan", "details": "50000 nM", "quoted_text": "KINOMEscan™ selectivity screen\nas §1, §2"}, "[4]": {"test_system": "CAMK4", "assay": "KINOMEscan", "details": "50000 nM", "quoted_text": "KINOMEscan™ selectivity screen\nas §1, §2"}, "[5]": {"test_system": "KIT(V559D,V654A)", "assay": "KINOMEscan", "details": "50000 nM", "quoted_text": "KINOMEscan™ selectivity screen\nas §1, §2"}, "[6]": {"test_system": "MLCK", "assay": "KINOMEscan", "details": "50000 nM", "quoted_text": "KINOMEscan™ selectivity screen\nas §1, §2"}, "[7]": {"test_system": "ERK2", "assay": "KINOMEscan", "details": "50000 nM", "quoted_text": "KINOMEscan™ selectivity screen\nas §1, §2"}, "[8]": {"test_system": "SYK", "assay": "KINOMEscan", "details": "50000 nM", "quoted_text": "KINOMEscan™ selectivity screen\nas §1, §2"}, "[9]": {"test_system": "IKK-alpha", "assay": "KINOMEscan", "details": "50000 nM", "quoted_text": "KINOMEscan™ selectivity screen\nas §1, §2"}, "[10]": {"test_system": "TNK1", "assay": "KINOMEscan", "details": "50000 nM", "quoted_text": "KINOMEscan™ selectivity screen\nas §1, §2"}, "[11]": {"test_system": "NEK11", "assay": "KINOMEscan", "details": "50000 nM", "quoted_text": "KINOMEscan™ selectivity screen\n(§3) Briefly, Kinase-tagged T7 phage strains were grown in parallel in an E. coli host derived from the BL21 strain. E. coli were grown to log-phase and infected with T7 phage from a frozen stock and incubated with shaking at 32°C until lysis (90-150 minutes). The kinases were produced in HEK-293 cells and subsequently tagged with DNA for qPCR detection. Streptavidin-coated magnetic beads were treated with biotinylated small molecule ligands to generate affinity resins for kinase\nas §2"}, "[12]": {"test_system": "EGFR(G719S)", "assay": "KINOMEscan", "details": "50000 nM", "quoted_text": "KINOMEscan™ selectivity screen\nas §1, §2"}, "[13]": {"test_system": "PIKFYVE", "assay": "KINOMEscan", "details": "50000 nM", "quoted_text": "KINOMEscan™ selectivity screen\nas §3, §2"}, "[14]": {"test_system": "FLT1", "assay": "KINOMEscan", "details": "50000 nM", "quoted_text": "KINOMEscan™ selectivity screen\nas §1, §2"}, "[15]": {"test_system": "PAK7", "assay": "KINOMEscan", "details": "50000 nM", "quoted_text": "KINOMEscan™ selectivity screen\nas §1, §2"}, "[16]": {"test_system": "MLK1", "assay": "KINOMEscan", "details": "50000 nM", "quoted_text": "KINOMEscan™ selectivity screen\nas §1, §2"}, "[17]": {"test_system": "PIP5K1C", "assay": "KINOMEscan", "details": "50000 nM", "quoted_text": "KINOMEscan™ selectivity screen\nas §1, §2"}, "[18]": {"test_system": "FLT3(N841I)", "assay": "KINOMEscan", "details": "50000 nM", "quoted_text": "KINOMEscan™ selectivity screen\nas §3, §2"}, "[19]": {"test_system": "FLT3(K663Q)", "assay": "KINOMEscan", "details": "50000 nM", "quoted_text": "KINOMEscan™ selectivity screen\nas §3, §2"}, "[20]": {"test_system": "PIM3", "assay": "KINOMEscan", "details": "50000 nM", "quoted_text": "KINOMEscan™ selectivity screen\nas §1, §2"}, "[21]": {"test_system": "EIF2AK1", "assay": "KINOMEscan", "details": "50000 nM", "quoted_text": "KINOMEscan™ selectivity screen\nas §1, §2"}, "[22]": {"test_system": "RSK4(Kin.Dom.2-C-terminal)", "assay": "KINOMEscan", "details": "50000 nM", "quoted_text": "KINOMEscan™ selectivity screen\nas §1, §2"}, "[23]": {"test_system": "over 380 human kinases", "assay": "KINOMEscan selectivity screen (whole panel)", "details": "50000 nM; 403 non-mutant kinases", "quoted_text": "KINOMEscan™ selectivity screen\nas §1, §2"}, "[24]": {"test_system": "RIOK1", "assay": "KINOMEscan", "details": "50000 nM", "quoted_text": "KINOMEscan™ selectivity screen\nas §1, §2"}, "[25]": {"test_system": "Akt S473 phosphorylation", "assay": "pS473-Akt HTRF assay", "assay_type": "cell-based, Mouse", "description": "Neuro 2A cells were seeded (4,000 cells/well) in 4 µL of DMEM with 0.5% FBS and 1x Penicillin/Streptomycin in white solid bottom tissue-culture treated 1536-well plates (Greiner, 789173-F) with MultiDrop Combi Dispenser (Thermo Scientific). The cells were incubated for 24 h at 37 °C, 5% CO2, 95% humidity. Twenty-three nL of tested compounds were transferred to each well with an automated pin-tool station (Kalypsys). Following incubation for 15 min at 37 °C, 0.5 µL IGF (500 ng/mL of final concentration) was added and incubated for additional 40 min at 37 °C. After the addition of 1.5 µL 4x lysis buffer and 15-min incubation at room temperature (25 °C), 2 µL of HTRF® conjugated antibodies (fluorophore d2 conjugated anti-Akt monoclonal antibody and Europium^3+ cryptate-labeled anti-pS473-Akt monoclonal antibody, obtained from CisBio, 1:80 dilution) were added with BioRAPTR FRD™ (Beckman Coulter). The plates were incubated at room temperature for 20 h. The signal was measured by EnVision Multilabel Plate Reader (PerkinElmer) with excitation at 330 nm, emission at 620 nm (donor) and 665 nm (acceptor). Results were calculated and analyzed in a format of the ratio 665 nm/620 nm multiplied by 10^4.\nRelative activity was calculated by normalizing each HTRF signal from each sample well to the mean HTRF signal from the DMSO-only control wells.\nThe Library of Pharmacologically Active Compounds (LOPAC, 1280 compounds) and the Molecular Library Small Molecular Repository Library (MLSMR, 373,868 compounds) were obtained from Sigma-Aldrich.\nQuantitative HTS (qHTS) and curve response class classification\nThe qHTS screen was performed as described previously1. Each compound was titrated in seven concentrations. The final concentrations of the compounds assayed ranged from 4.9 nM to 76.6 µM. The curve response classifications (CRC), which can be used to depict potency, efficacy and reliability of the data, and to estimate an IC50 value, were determined by a customized software2. […]\nSigma-Aldrich) and the basal response (0% inhibition) was set to the DMSO control.\nEfficacy of a compound refers to the highest response normalized to the maximal response of LY. The CRCs were grouped into 4 categories. Class 1 are well-fit and have both upper and lower asymptotes with efficacy greater than 30%\n(Class1.1, >80% efficacy; Class 1.2; 30-80% efficacy). Class 2 are incomplete with only one asy mptote (Class 2.1, > 80% efficacy; Class 2.2, 30-80% % efficacy). Class 3 display activity only at the highest concentrations and efficacy >30%. Class 4 are with low efficacy (<30%) or no response and considered inactive3."}}}
{"smiles": "Oc1cc(-c2ccccc2)c2ccccc2n1", "note": "[G7, 4-phenylquinolin-2(1H)-one]", "values": [{"measurement": "proliferation of Neuro 2A cells", "setting": "[1]", "value": "inhibited the proliferation"}, {"measurement": "Percent Control", "setting": "[2]", "value": 100, "unit": "%"}, {"measurement": "Percent Control", "setting": "[3]", "value": 100, "unit": "%"}, {"measurement": "Percent Control", "setting": "[4]", "value": 100, "unit": "%"}, {"measurement": "Percent Control", "setting": "[5]", "value": 48, "unit": "%"}, {"measurement": "Percent Control", "setting": "[6]", "value": 78, "unit": "%"}, {"measurement": "Percent Control", "setting": "[7]", "value": 93, "unit": "%"}, {"measurement": "Percent Control", "setting": "[8]", "value": 95, "unit": "%"}, {"measurement": "Percent Control", "setting": "[9]", "value": 92, "unit": "%"}, {"measurement": "Percent Control", "setting": "[10]", "value": 100, "unit": "%"}, {"measurement": "Percent Control", "setting": "[11]", "value": 90, "unit": "%"}, {"measurement": "Percent Control", "setting": "[12]", "value": 100, "unit": "%"}, {"measurement": "Percent Control", "setting": "[13]", "value": 74, "unit": "%"}, {"measurement": "Percent Control", "setting": "[14]", "value": 81, "unit": "%"}, {"measurement": "Percent Control", "setting": "[15]", "value": 57, "unit": "%"}, {"measurement": "Percent Control", "setting": "[16]", "value": 82, "unit": "%"}, {"measurement": "Percent Control", "setting": "[17]", "value": 44, "unit": "%"}, {"measurement": "Percent Control", "setting": "[18]", "value": 30, "unit": "%"}, {"measurement": "Percent Control", "setting": "[19]", "value": 29, "unit": "%"}, {"measurement": "Percent Control", "setting": "[20]", "value": 64, "unit": "%"}, {"measurement": "Percent Control", "setting": "[21]", "value": 100, "unit": "%"}, {"measurement": "Percent Control", "setting": "[22]", "value": 38, "unit": "%"}, {"measurement": "Number of Hits S(1)", "setting": "[23]", "value": 0}, {"measurement": "Number of Hits S(10)", "setting": "[23]", "value": 2}, {"measurement": "Number of Hits S(35)", "setting": "[23]", "value": 14}, {"measurement": "Selectivity Score S(10)", "setting": "[23]", "value": 0.005}, {"measurement": "Selectivity Score S(35)", "setting": "[23]", "value": 0.035}, {"measurement": "Percent Control", "setting": "[24]", "value": 95, "unit": "%"}, {"measurement": "IC50", "setting": "[25]; Mus musculus, N2a, Neuro 2A cells, inhibitor 15 min before IGF, read-out: IC50", "value": "~20", "unit": "µM"}, {"measurement": "maximum inhibition", "setting": "[25]; compared to that of 100 µM LY", "value": 50, "unit": "%"}]}
